Values of other authors as cited in patent publication US5246969A, “Di-propargyl-containing aryl/alkylsulfonyl-terminated alanine amino-diol compounds for treatment of hypertension” (G. D. Searle & Co., priority 1992, dated 1993).
Square brackets hold non-standard residues; d marks the D form. Peptide text beside a SMILES is read from it. * marks the point of attachment. Sta = CC(C)C[C@H](N)[C@@H](O)CC(=O)O; Isovaleryl = CC(C)CC(=O)*

Tested on: hog renin
Settings: nephrectomized rats after the injection of hog renin

Q: For `CC(C)CC(=O)N[C@H](C(=O)N[C@H](C(=O)N[C@@H](CC(C)C)[C@@H](O)CC(=O)N[C@@H](C)C(=O)N[C@@H](CC(C)C)[C@@H](O)CC(=O)O)C(C)C)C(C)C` [pepstatin] (Isovaleryl-VV[Sta]A[Sta]-OH), which “blood pressure in vivo” value is on record?
A: Its value is “reduce blood pressure”.
